Like-named read-outs stand apart in the source and are kept apart here. *1 amine or outer side, *2 acyl side, *3 side chain or, on linkers, in order; H or OH if unused. Where a SMILES comes first, the peptide text is derived from it. Bridges are numbered along the chain shown (N, C = ends). [ ]: non-standard residue; d: D form. The star is where a group is joined. hPhe(3,5-F2-4-CF3) = N[C@@H](CCc1cc(F)c(C(F)(F)F)c(F)c1)C(=O)O; hPhe(3-Cl-4-CF3) = N[C@@H](CCc1ccc(C(F)(F)F)c(Cl)c1)C(=O)O; X37 = O=C([C@H](Cc1ccc(C(F)(F)F)cc1)N(CC1CCC1)[*:1])[*:2]; NPrPhe(4-CF3) = CCCN[C@@H](Cc1ccc(C(F)(F)F)cc1)C(=O)O; X21 = Cc1ccc(C[C@@H](C(=O)[*:2])N(CC2CC2)[*:1])cc1; hPhe(3,4-Cl2) = N[C@@H](CCc1ccc(Cl)c(Cl)c1)C(=O)O; X13 = O=C([C@@H](N[*:1])C1CC(F)(F)C1)[*:2]; NMeGly(cPent) = CN[C@H](C(=O)O)C1CCCC1; Pro(4,4-Me2) = CC1(C)CN[C@H](C(=O)O)C1; X11 = CCC[C@](C)(N[*:1])C(=O)[*:2]; Hyp = O=C(O)[C@@H]1C[C@@H](O)CN1; NMeD = CN[C@@H](CC(=O)O)C(=O)O; Ac4c(3-oxa) = NC1(C(=O)O)COC1; NMeL = CN[C@@H](CC(C)C)C(=O)O; Morpholide = C1CN(*)CCO1; NMeA = CN[C@@H](C)C(=O)O; Ac5c = NC1(C(=O)O)CCCC1; Aze = O=C(O)[C@@H]1CCN1; Ac4c = NC1(C(=O)O)CCC1; NEtG = CCNCC(=O)O; Sar = CNCC(=O)O
Tests used:
[1] = molecular target: GDP-bound KRAS wild-type protein (Homo sapiens, UniProt P01116); experiment: Binding to KRAS by surface plasmon resonance (SPR), Single Cycle Kinetics; conditions: GDP-bound KRAS wild-type protein, read-out: KRAS KD
Sequence of GDP-bound KRAS wild-type protein (P01116 whole entry): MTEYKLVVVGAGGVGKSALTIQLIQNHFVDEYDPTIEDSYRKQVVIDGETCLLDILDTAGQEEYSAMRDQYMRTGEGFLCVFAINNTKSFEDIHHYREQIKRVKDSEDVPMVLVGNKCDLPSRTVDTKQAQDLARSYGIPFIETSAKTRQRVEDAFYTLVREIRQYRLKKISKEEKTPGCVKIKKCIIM

[2] = molecular target: GDP-bound NRAS wild-type protein (Homo sapiens, UniProt P01111); experiment: Binding to NRAS by surface plasmon resonance (SPR), Single Cycle Kinetics; conditions: SPR, GDP-bound NRAS wild-type protein vs GDP-bound KRAS wild-type protein
Sequence of GDP-bound NRAS wild-type protein (P01111 whole entry): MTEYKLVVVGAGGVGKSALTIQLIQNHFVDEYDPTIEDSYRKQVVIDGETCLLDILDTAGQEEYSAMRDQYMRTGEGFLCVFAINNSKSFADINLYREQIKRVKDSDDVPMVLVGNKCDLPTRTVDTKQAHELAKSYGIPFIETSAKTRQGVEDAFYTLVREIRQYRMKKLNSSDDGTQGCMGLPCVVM

[3] = molecular target: GDP-bound HRAS wild-type protein (Homo sapiens, UniProt P01112); experiment: Binding to HRAS by surface plasmon resonance (SPR), Single Cycle Kinetics; conditions: SPR, GDP-bound HRAS wild-type protein vs GDP-bound KRAS wild-type protein
Sequence of GDP-bound HRAS wild-type protein (P01112 whole entry): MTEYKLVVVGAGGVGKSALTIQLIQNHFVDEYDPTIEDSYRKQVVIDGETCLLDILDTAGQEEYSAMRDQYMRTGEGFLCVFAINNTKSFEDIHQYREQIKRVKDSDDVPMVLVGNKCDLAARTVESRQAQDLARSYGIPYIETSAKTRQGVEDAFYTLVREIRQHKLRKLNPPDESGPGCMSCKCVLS

[4] = SPR Single Cycle Kinetics, 1:1 binding model

| Kd [1, 4] [nM] | Kd ([1]; SPR, Single Cycle Kinetics) [nM] | SMILES | NRAS/KRAS (ratio of KD value with respect to NRAS to KD value with respect to KRAS) [2] | HRAS/KRAS (ratio of KD value with respect to HRAS to KD value with respect to KRAS) [3] | NRAS/KRAS (ratio of KD value for NRAS to KD value for KRAS) [2] | HRAS/KRAS (ratio of KD value for HRAS to KD value for KRAS) [3] |
| --- | --- | --- | --- | --- | --- | --- |
| 0.31 | – | CCCN1C(=O)CN(C)C(=O)CN(C)C(=O)[C@H]([C@@H](C)CC)NC(=O)[C@H](CC(C)C)N(C)C(=O)C[C@@H](C(=O)N2CCOCC2)N(C)C(=O)[C@H](C2CCCC2)N(C)C(=O)C2(COC2)NC(=O)[C@@H]2CCCN2C(=O)[C@H](CCc2cc(F)c(C(F)(F)F)c(F)c2)NC(=O)CN(C)C(=O)[C@@H]1Cc1ccc(C(F)(F)F)cc1 [PP0765] ([NMeL]I[Sar][Sar][NPrPhe(4-CF3)][Sar][hPhe(3,5-F2-4-CF3)]P[Ac4c(3-oxa)][NMeGly(cPent)][NMeD]-Morpholide; lactam N-11) | B (a compound having 3 or more and less than 10 is denoted as B) | C (A compound having a KD ratio of 0.1 or more and less than 3 is denoted as C) | – | – |
| 0.022 | – | CCO[C@@H]1C[C@H]2C(=O)NC3(CCC3)C(=O)N(C)[C@@H](C3CCCC3)C(=O)N(C)[C@H](C(=O)N3CCOCC3)CC(=O)N(C)[C@@H](C)C(=O)N[C@@H]([C@@H](C)CC)C(=O)N(C)CC(=O)N(C)[C@H]3CCCCN(C3=O)[C@@H](Cc3ccc(C(F)(F)F)cc3)C(=O)N(C)CC(=O)N[C@@H](CCc3cc(F)c(C(F)(F)F)c(F)c3)C(=O)N2C1 [PP0585] | B (a compound having 3 or more and less than 10 is denoted as B) | B (a compound having 3 or more and less than 10 is denoted as B) | – | – |
| – | 0.21 | CCO[C@@H]1C[C@H]2C(=O)NC3(CCC3)C(=O)N(C)[C@@H](C3CCCC3)C(=O)N(C)[C@H](C(=O)N3CCOCC3)CC(=O)N(C)[C@@H](CC(C)C)C(=O)N[C@@H]([C@@H](C)CC)C(=O)N(C)CC(=O)N(C)[C@H]3CC=CCN(C3=O)[C@@H](Cc3ccc(C(F)(F)F)cc3)C(=O)N(C)CC(=O)N[C@@H](CCc3cc(F)c(C(F)(F)F)c(F)c3)C(=O)N2C1 [PP0832] | – | – | C (A compound having a KD ratio of 0.1 or more and less than 3 is denoted as C) | C (A compound having a KD ratio of 0.1 or more and less than 3 is denoted as C) |
| 18 | – | CC[C@H](C)[C@@H]1NC(=O)[C@H](CC(C)C)N(C)C(=O)C[C@@H](C(=O)N2CCOCC2)N(C)C(=O)[C@H](C2CCCC2)N(C)C(=O)C2(CCCC2)NC(=O)[C@@H]2CCCN2C(=O)[C@H](CCc2cc(F)c(C(F)(F)F)c(F)c2)NC(=O)CN(C)C(=O)[C@H](Cc2ccc(C(F)(F)F)cc2)N2CCCC[C@@H](C2=O)N(C)C(=O)[C@H](C)N(C)C1=O [PP0544] | B (a compound having 3 or more and less than 10 is denoted as B) | B (a compound having 3 or more and less than 10 is denoted as B) | – | – |
| 0.34 | – | CCCN1C(=O)[C@@H]2CCN2C(=O)CN(C)C(=O)[C@H](C2CC(F)(F)C2)NC(=O)[C@H](CC(C)C)N(C)C(=O)C[C@@H](C(=O)N2CCOCC2)N(C)C(=O)[C@H](C2CCCC2)N(C)C(=O)C2(CCCC2)NC(=O)[C@@H]2CCCN2C(=O)[C@H](CCc2cc(F)c(C(F)(F)F)c(F)c2)NC(=O)CN(C)C(=O)[C@@H]1Cc1ccc(C(F)(F)F)cc1 [PP0787] ([NMeL][X13][Sar][Aze][NPrPhe(4-CF3)][Sar][hPhe(3,5-F2-4-CF3)]P[Ac5c][NMeGly(cPent)][NMeD]-Morpholide; lactam N-11) | C (A compound having a KD ratio of 0.1 or more and less than 3 is denoted as C) | B (a compound having 3 or more and less than 10 is denoted as B) | – | – |
| 0.55 | – | CCCN1C(=O)CN(C)C(=O)CN(C)C(=O)[C@H]([C@@H](C)CC)NC(=O)[C@H](CC(C)C)N(C)C(=O)C[C@@H](C(=O)N(C)C)N(C)C(=O)[C@H](C2CCCC2)N(C)C(=O)[C@](C)(CCC)NC(=O)[C@@H]2CCCN2C(=O)[C@H](CCc2cc(F)c(C(F)(F)F)c(F)c2)NC(=O)CN(C)C(=O)[C@@H]1Cc1ccc(C(F)(F)F)cc1 [PP0737] ([NMeL]I[Sar][Sar][NPrPhe(4-CF3)][Sar][hPhe(3,5-F2-4-CF3)]P[X11][NMeGly(cPent)][NMeD]-NMe2; lactam N-11) | B (a compound having 3 or more and less than 10 is denoted as B) | C (A compound having a KD ratio of 0.1 or more and less than 3 is denoted as C) | – | – |

The next lines start with the compound.

| SMILES | Kd [1, 4] [nM] | Kd ([1]; SPR, Single Cycle Kinetics) [nM] | NRAS/KRAS (ratio of KD value with respect to NRAS to KD value with respect to KRAS) [2] | HRAS/KRAS (ratio of KD value with respect to HRAS to KD value with respect to KRAS) [3] | NRAS/KRAS (ratio of KD value for NRAS to KD value for KRAS) [2] | HRAS/KRAS (ratio of KD value for HRAS to KD value for KRAS) [3] |
| --- | --- | --- | --- | --- | --- | --- |
| CCCN1C(=O)[C@@H]2CCN2C(=O)CN(C)C(=O)[C@H]([C@@H](C)CC)NC(=O)[C@H](CC(C)C)N(C)C(=O)C[C@@H](C(=O)N2CCOCC2)N(C)C(=O)[C@H](C2CCCC2)N(C)C(=O)C2(CCCC2)NC(=O)[C@@H]2CC(C)(C)CN2C(=O)[C@H](CCc2ccc(C(F)(F)F)c(Cl)c2)NC(=O)CN(C)C(=O)[C@@H]1Cc1ccc(C(F)(F)F)cc1 [PP0456] ([NMeL]I[Sar][Aze][NPrPhe(4-CF3)][Sar][hPhe(3-Cl-4-CF3)][Pro(4,4-Me2)][Ac5c][NMeGly(cPent)][NMeD]-Morpholide; lactam N-11) | 0.07 | – | C (A compound having a KD ratio of 0.1 or more and less than 3 is denoted as C) | C (A compound having a KD ratio of 0.1 or more and less than 3 is denoted as C) | – | – |
| CCCN1C(=O)CN(C)C(=O)CN(C)C(=O)[C@H]([C@@H](C)CC)NC(=O)[C@H](CC(C)C)N(C)C(=O)C[C@@H](C(=O)N2CCOCC2)N(C)C(=O)[C@H](C2CCCC2)N(C)C(=O)C2(CCCC2)NC(=O)[C@@H]2CCCN2C(=O)[C@H](CCc2ccc(Cl)c(Cl)c2)NC(=O)CN(C)C(=O)[C@@H]1Cc1ccc(C(F)(F)F)cc1 [PP0232] ([NMeL]I[Sar][Sar][NPrPhe(4-CF3)][Sar][hPhe(3,4-Cl2)]P[Ac5c][NMeGly(cPent)][NMeD]-Morpholide; lactam N-11) | 0.28 | – | – | – | B (a compound having 3 or more and less than 10 is denoted as B) | B (a compound having 3 or more and less than 10 is denoted as B) |
| CC[C@H](C)[C@@H]1NC(=O)[C@H](CC(C)C)N(C)C(=O)C[C@@H](C(=O)N2CCOCC2)N(C)C(=O)[C@H](C2CCCC2)N(C)C(=O)C2(CCCC2)NC(=O)[C@@H]2CCCN2C(=O)[C@H](CCc2ccc(C(F)(F)F)c(Cl)c2)NC(=O)CN(C)C(=O)[C@H](Cc2ccc(C(F)(F)F)cc2)N(CC2CCC2)C(=O)CN(C)C(=O)CN(C)C1=O [PP0123] ([NMeL]I[Sar][Sar][X37][Sar][hPhe(3-Cl-4-CF3)]P[Ac5c][NMeGly(cPent)][NMeD]-Morpholide; lactam N-11) | 0.83 | – | – | – | B (a compound having 3 or more and less than 10 is denoted as B) | C (A compound having a KD ratio of 0.1 or more and less than 3 is denoted as C) |
| CCCN1C(=O)CN(C)C(=O)CN(CC)C(=O)[C@H]([C@@H](C)CC)NC(=O)[C@H](CC(C)C)N(C)C(=O)C[C@@H](C(=O)N2CCOCC2)N(C)C(=O)[C@H](C2CCCC2)N(C)C(=O)C2(CCCC2)NC(=O)[C@@H]2C[C@@H](OC)CN2C(=O)[C@H](CCc2ccc(C(F)(F)F)c(Cl)c2)NC(=O)CN(C)C(=O)[C@@H]1Cc1ccc(C(F)(F)F)cc1 [PP0296] ([NMeL]I[NEtG][Sar][NPrPhe(4-CF3)][Sar][hPhe(3-Cl-4-CF3)][Hyp](Me)[Ac5c][NMeGly(cPent)][NMeD]-Morpholide; lactam N-11) | 0.15 | – | – | – | B (a compound having 3 or more and less than 10 is denoted as B) | C (A compound having a KD ratio of 0.1 or more and less than 3 is denoted as C) |
| CCCN1C(=O)CN(C)C(=O)CNC(=O)[C@H]([C@@H](C)CC)NC(=O)[C@H](CC(C)C)N(C)C(=O)C[C@@H](C(=O)N2CCOCC2)N(C)C(=O)[C@H](C2CCCC2)N(C)C(=O)C2(CCC2)NC(=O)[C@@H]2CCCN2C(=O)[C@H](CCc2ccc(C(F)(F)F)c(Cl)c2)NC(=O)CN(C)C(=O)[C@@H]1Cc1ccc(C(F)(F)F)cc1 [PP0393] ([NMeL]IG[Sar][NPrPhe(4-CF3)][Sar][hPhe(3-Cl-4-CF3)]P[Ac4c][NMeGly(cPent)][NMeD]-Morpholide; lactam N-11) | 0.11 | – | – | – | B (a compound having 3 or more and less than 10 is denoted as B) | B (a compound having 3 or more and less than 10 is denoted as B) |
| CC[C@H](C)[C@@H]1NC(=O)[C@H](CC(C)C)N(C)C(=O)C[C@@H](C(=O)N2CCOCC2)N(C)C(=O)[C@H](C2CCCC2)N(C)C(=O)C2(CCCC2)NC(=O)[C@@H]2CCCN2C(=O)[C@H](CCc2ccc(C(F)(F)F)c(Cl)c2)NC(=O)CN(C)C(=O)[C@H](Cc2ccc(C)cc2)N(CC2CC2)C(=O)[C@@H]2CCN2C(=O)[C@H](C)N(C)C1=O [PP0057] ([NMeL]I[NMeA][Aze][X21][Sar][hPhe(3-Cl-4-CF3)]P[Ac5c][NMeGly(cPent)][NMeD]-Morpholide; lactam N-11) | 0.21 | – | – | – | C (A compound having a KD ratio of 0.1 or more and less than 3 is denoted as C) | B (a compound having 3 or more and less than 10 is denoted as B) |
